The results in this text go back to US9475816B2, “Substituted-1,4-dihydropyrazolo[4,3-b]indoles” (TAKEDA PHARMACEUTICAL COMPANY LIMITED, priority 2012, dated 2016).

The IC50 is the point on the concentration scale where inhibition reaches its midpoint. Higher therefore signals weaker potency.

The target in assay [1] is T1, human MetAP2 enzyme (Homo sapiens, UniProt P50579). Description: MetAP2 enzyme assay, MetAP2 enzyme complexed with cobalt ions. The conditions noted are these: MetAP2 Co pIC50, 10 μM CoCl2; -log(IC50), IC50 molar.
T1 sequence (P50579 whole entry): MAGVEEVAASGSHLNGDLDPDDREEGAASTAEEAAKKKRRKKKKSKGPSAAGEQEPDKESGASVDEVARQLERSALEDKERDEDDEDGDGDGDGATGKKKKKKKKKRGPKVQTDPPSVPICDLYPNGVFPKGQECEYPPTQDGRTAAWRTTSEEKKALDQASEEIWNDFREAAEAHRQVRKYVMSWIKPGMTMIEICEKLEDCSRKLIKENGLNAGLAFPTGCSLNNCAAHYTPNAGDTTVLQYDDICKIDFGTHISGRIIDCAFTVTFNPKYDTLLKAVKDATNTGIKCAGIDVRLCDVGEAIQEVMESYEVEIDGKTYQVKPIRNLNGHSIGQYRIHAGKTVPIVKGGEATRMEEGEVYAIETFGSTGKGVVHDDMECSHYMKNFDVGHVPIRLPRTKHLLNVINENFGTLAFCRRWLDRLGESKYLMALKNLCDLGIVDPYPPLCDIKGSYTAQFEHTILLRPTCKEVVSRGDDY
Protocol: (§1) DNA encoding the full-length sequence of human MetAP2 enzyme is amplified by PCR and cloned into a pFastBac expression vector (Invitrogen). Recombinant baculovirus incorporating the MetAP2 construct is generated by transposition using the Bac-to-Bac system (Invitrogen). The expression of recombinant protein is carried out by infection of Spodoptera frugiperda Sf9 cells (Invitrogen) in 5L Wave Bioreactors (Wave Biotech). Recombinant protein is isolated from cellular extracts by binding to an SP Hitrap Fast Flow or SP Sepharose (Sigma) column, and the protein is eluted using a NaCl gradient. Partially purified extracts of MetAP2 are further purified by an AKTA FPLC over a Superdex-200 column (GE). The purity of MetAP2 protein is determined on denaturing SDS-PAGE gel.
(§2) The results for each well are expressed as percent inhibition and calculated using the equation:
Assay [2] deals with T1, human MetAP2 enzyme. Description: MetAP2 enzyme assay, MetAP2 enzyme complexed with manganese ions. The conditions noted are these: MetAP2 Mn pIC50, 10 μM MnCl2; -log(IC50), IC50 molar.
Protocol: as §1, §2

On to `Cc1nc(N2CCN(C)C(=O)C2)ncc1-n1c2ccc(F)cc2c2[nH]ncc21` [Example 39, 4-(5-(7-Fluoropyrazolo[4,3-b]indol-4(1H)-yl)-4-methylpyrimidin-2-yl)-1-methylpiperazin-2-one], for which the IC50 against human MetAP2 enzyme [1] is 0.00631 µM; against human MetAP2 enzyme [2], 0.00794 µM.
For the compound `Cc1[nH]c(=O)ccc1-n1c2ccc(F)cc2c2[nH]ncc21` [Example 40, 5-(7-Fluoropyrazolo[4,3-b]indol-4(1H)-yl)-6-methylpyridin-2(1H)-one], the IC50 against human MetAP2 enzyme [1] and at human MetAP2 enzyme [2] was 0.0158 µM throughout.
Turning to `Cc1cc(N)ncc1-n1c2ccc(F)cc2c2[nH]ncc21` [Example 41, 5-(7-Fluoropyrazolo[4,3-b]indol-4(1H)-yl)-4-methylpyridin-2-amine], the IC50 at human MetAP2 enzyme [1] and against human MetAP2 enzyme [2] was 0.0126 µM in each case.
`Cc1nc(N)ccc1-n1c2ccc(F)cc2c2[nH]ncc21` [Example 42, 5-(7-Fluoropyrazolo[4,3-b]indol-4(1H)-yl)-6-methylpyridin-2-amine]: the IC50 against human MetAP2 enzyme [1] was 0.01 µM; at human MetAP2 enzyme [2] it was 0.0158 µM.
Regarding `Cc1nc(N2CC(F)(F)C2)ncc1-n1c2ccc(F)cc2c2[nH]ncc21` [Example 43, 4-(2-(3,3-Difluoroazetidin-1-yl)-4-methylpyrimidin-5-yl)-7-fluoro-1,4-dihydropyrazolo[4,3-b]indole], the IC50 against human MetAP2 enzyme [1] and at human MetAP2 enzyme [2] was 0.0126 µM in each case.
As for `Cc1nc(N2CCNC(=O)C2)ncc1-n1c2ccc(F)cc2c2[nH]ncc21` [Example 44, 4-(5-(7-Fluoropyrazolo[4,3-b]indol-4(1H)-yl)-4-methylpyrimidin-2-yl)piperazin-2-one], the IC50 against human MetAP2 enzyme [1] was 0.00794 µM; against human MetAP2 enzyme [2] it was 0.01 µM.
Regarding `CNc1cc(C)c(-n2c3ccc(F)cc3c3[nH]ncc32)cn1` [Example 45, 5-(7-Fluoropyrazolo[4,3-b]indol-4(1H)-yl)-N,4-dimethylpyridin-2-amine], the half-maximal inhibitory concentration (IC50) against human MetAP2 enzyme [1] was 0.00631 µM; at human MetAP2 enzyme [2] it was 0.0126 µM.
For `Cn1nccc1-n1c2ccc(F)cc2c2[nH]ncc21` [Example 46, 7-Fluoro-4-(1-methyl-1H-pyrazol-5-yl)-1,4-dihydropyrazolo[4,3-b]indole] the same measures were 0.02 µM and 0.02 µM.
For `Cc1nc(N2CC(CO)C2)ncc1-n1c2ccc(F)cc2c2[nH]ncc21` [Example 47, (1-(5-(7-Fluoropyrazolo[4,3-b]indol-4(1H)-yl)-4-methylpyrimidin-2-yl)azetidin-3-yl)methanol] the same measures were 0.00794 µM and 0.0126 µM.
On to `Cn1nc(C(N)=O)cc1-n1c2ccc(F)cc2c2[nH]ncc21` [Example 48, 5-(7-Fluoropyrazolo[4,3-b]indol-4(1H)-yl)-1-methyl-1H-pyrazole-3-carboxamide], for which the results for the IC50 against human MetAP2 enzyme [1] and against human MetAP2 enzyme [2] were 0.0158 µM and 0.0126 µM, respectively.
In the case of `Cc1ncncc1-n1c2ccc(F)cc2c2[nH]ncc21` [Example 49, 7-Fluoro-4-(4-methylpyrimidin-5-yl)-1,4-dihydropyrazolo[4,3-b]indole], the IC50 is 0.0631 µM against human MetAP2 enzyme [1] and 0.0316 µM against human MetAP2 enzyme [2].
For `O=C(c1ccc(Cn2c3ccc(F)cc3c3[nH]ncc32)cc1)N1CCOCC1` [Example 52, (4-((7-Fluoropyrazolo[4,3-b]indol-4(1H)-yl)methyl)phenyl)(morpholino)methanone] the same measures were 0.0316 µM and 0.0501 µM.
Turning to `CN1CCN(C(=O)c2ccc(Cn3c4ccc(F)cc4c4[nH]ncc43)cc2)CC1` [Example 53, (4-((7-Fluoropyrazolo[4,3-b]indol-4(1H)-yl)methyl)phenyl)(4-methylpiperazin-1-yl)methanone], the results for the IC50 against human MetAP2 enzyme [1] and against human MetAP2 enzyme [2] were 0.0501 µM and 0.0794 µM, respectively.
Take `O=C(NCCO)c1ccc(Cn2c3ccc(F)cc3c3[nH]ncc32)cc1` [Example 54, 4-((7-Fluoropyrazolo[4,3-b]indol-4(1H)-yl)methyl)-N-(2-hydroxyethyl)benzamide]: the IC50 against human MetAP2 enzyme [1] was 0.0316 µM; against human MetAP2 enzyme [2], 0.0398 µM.
With `Cc1nc(N2CC[C@H](O)C2)ncc1-n1c2ccc(F)cc2c2[nH]ncc21` [Example 55, (S)-1-(5-(7-Fluoropyrazolo[4,3-b]indol-4(1H)-yl)-4-methylpyrimidin-2-yl)pyrrolidin-3-ol], the half-maximal inhibitory concentration (IC50) was 0.0251 µM against human MetAP2 enzyme [1] and 0.0158 µM at human MetAP2 enzyme [2].
For `Cc1nc(N2CCC(C#N)CC2)ncc1-n1c2ccc(F)cc2c2[nH]ncc21` [Example 56, 1-(5-(7-Fluoropyrazolo[4,3-b]indol-4(1H)-yl)-4-methylpyrimidin-2-yl)piperidine-4-carbonitrile] the same measures were 0.0126 µM and 0.00794 µM.
Turning to `Cc1nc(N2CCC(F)CC2)ncc1-n1c2ccc(F)cc2c2[nH]ncc21` [Example 57, 7-Fluoro-4-(2-(4-fluoropiperidin-1-yl)-4-methylpyrimidin-5-yl)-1,4-dihydropyrazolo[4,3-b]indole], the IC50 was 0.0251 µM on human MetAP2 enzyme [1] and 0.0126 µM against human MetAP2 enzyme [2].
In the case of `Cc1nc(N2CC[C@@H](O)C2)ncc1-n1c2ccc(F)cc2c2[nH]ncc21` [Example 58, (3R)-1-(5-(7-Fluoropyrazolo[4,3-b]indol-4(1H)-yl)-4-methylpyrimidin-2-yl)pyrrolidin-3-ol], the IC50 is 0.0158 µM on human MetAP2 enzyme [1] and 0.0126 µM against human MetAP2 enzyme [2].
Consider `Cc1nc(N2CCC(CO)CC2)ncc1-n1c2ccc(F)cc2c2[nH]ncc21` [Example 59, (1-(5-(7-Fluoropyrazolo[4,3-b]indol-4(1H)-yl)-4-methylpyrimidin-2-yl)piperidin-4-yl)methanol], for which the IC50 at human MetAP2 enzyme [1] is 0.0126 µM; at human MetAP2 enzyme [2], 0.01 µM.
Turning to `Cc1nc(N2CCN(C)CC2)ncc1-n1c2ccc(F)cc2c2[nH]ncc21` [Example 60, 7-Fluoro-4-(4-methyl-2-(4-methylpiperazin-1-yl)pyrimidin-5-yl)-1,4-dihydropyrazolo[4,3-b]indole], the IC50 against human MetAP2 enzyme [1] was 0.00316 µM; on human MetAP2 enzyme [2] it was 0.01 µM.
Regarding `Cc1ncccc1-n1c2ccc(F)cc2c2[nH]ncc21` [Example 61, 7-Fluoro-4-(2-methylpyridin-3-yl)-1,4-dihydropyrazolo[4,3-b]indole], the IC50 against human MetAP2 enzyme [1] is 0.0158 µM; at human MetAP2 enzyme [2], 0.0126 µM.
As for `Cc1nn(C)c(C)c1-n1c2ccc(F)cc2c2[nH]ncc21` [Example 62, 7-Fluoro-4-(1,3,5-trimethyl-1H-pyrazol-4-yl)-1,4-dihydropyrazolo[4,3-b]indole], the values for the IC50 against human MetAP2 enzyme [1] and on human MetAP2 enzyme [2] were 0.0251 µM and 0.0316 µM, respectively.
For `Cc1cc(N(C)CCO)ncc1-n1c2ccc(F)cc2c2[nH]ncc21` [Example 63, 2-((5-(7-Fluoropyrazolo[4,3-b]indol-4(1H)-yl)-4-methylpyridin-2-yl)(methyl)amino)ethanol] the same measures were 0.0158 µM and 0.0158 µM.
The matching figures for `Cc1nc(N2CCNCC2)ccc1-n1c2ccc(F)cc2c2[nH]ncc21` [Example 64, 7-Fluoro-4-(2-methyl-6-(piperazin-1-yl)pyridin-3-yl)-1,4-dihydropyrazolo[4,3-b]indole]: 0.0158 µM and 0.0126 µM.
For `COCc1[nH]ncc1-n1c2ccc(F)cc2c2[nH]ncc21` [Example 65, 7-Fluoro-4-(5-(methoxymethyl)-1H-pyrazol-4-yl)-1,4-dihydropyrazolo[4,3-b]indole], the IC50 on human MetAP2 enzyme [1] is 0.0126 µM; at human MetAP2 enzyme [2] it was 0.01 µM.
Regarding `Cc1nc(N2CCOCC2)ccc1-n1c2ccc(F)cc2c2[nH]ncc21` [Example 66, 4-(5-(7-Fluoropyrazolo[4,3-b]indol-4(1H)-yl)-6-methylpyridin-2-yl)morpholine], the values for the IC50 against human MetAP2 enzyme [1] and on human MetAP2 enzyme [2] were 0.01 µM and 0.00316 µM, respectively.
The matching figures for `Cc1c(-n2c3ccc(F)cc3c3[nH]ncc32)cnc(N)c1C` [Example 68, 5-(7-Fluoropyrazolo[4,3-b]indol-4(1H)-yl)-3,4-dimethylpyridin-2-amine]: 0.01 µM and 0.00316 µM.
For `COc1ccc(-n2c3ccc(F)cc3c3[nH]ncc32)c(C)n1` [Example 69, 7-Fluoro-4-(6-methoxy-2-methylpyridin-3-yl)-1,4-dihydropyrazolo[4,3-b]indole] the same measures were 0.02 µM and 0.00501 µM.
The matching figures for `Cc1c(-n2c3ccc(F)cc3c3[nH]ncc32)ccc2ncnn12` [Example 70, 7-Fluoro-4-(5-methyl-[1,2,4]triazolo[1,5-a]pyridin-6-yl)-1,4-dihydropyrazolo[4,3-b]indole]: 0.02 µM and 0.01 µM.
For the compound `Cc1c(-n2c3ccc(F)cc3c3[nH]ncc32)ccc2[nH]ncc12` [Example 71, 7-Fluoro-4-(4-methyl-1H-indazol-5-yl)-1,4-dihydropyrazolo[4,3-b]indole], the figures for the IC50 at human MetAP2 enzyme [1] and against human MetAP2 enzyme [2] were 0.0126 µM and 0.01 µM, respectively.
Turning to `Cc1nc(N2CCC[C@H]2C(N)=O)ncc1-n1c2ccc(F)cc2c2[nH]ncc21` [Example 72, (2S)-1-(5-(7-Fluoropyrazolo[4,3-b]indol-4(1H)-yl)-4-methylpyrimidin-2-yl)pyrrolidine-2-carboxamide], the IC50 against human MetAP2 enzyme [1] was 0.00794 µM; at human MetAP2 enzyme [2], 0.00316 µM.
For `Cc1nc(N2CCC[C@@H]2C(N)=O)ncc1-n1c2ccc(F)cc2c2[nH]ncc21` [Example 73, (2R)-1-(5-(7-Fluoropyrazolo[4,3-b]indol-4(1H)-yl)-4-methylpyrimidin-2-yl)pyrrolidine-2-carboxamide] the same measures were 0.00631 µM and 0.00316 µM.
For `Cc1nc(NCCO)ncc1-n1c2ccc(F)cc2c2[nH]ncc21` [Example 74, 2-((5-(7-Fluoropyrazolo[4,3-b]indol-4(1H)-yl)-4-methylpyrimidin-2-yl)amino)ethanol] the same measures were 0.01 µM and 0.00794 µM.
On to `Cc1nc(N[C@H](C)CO)ncc1-n1c2ccc(F)cc2c2[nH]ncc21` [Example 75, (2R)-2-((5-(7-Fluoropyrazolo[4,3-b]indol-4(1H)-yl)-4-methylpyrimidin-2-yl)amino)propan-1-ol], for which the IC50 against human MetAP2 enzyme [1] is 0.00794 µM; on human MetAP2 enzyme [2], 0.00501 µM.
